Read-outs that look alike come from different tables or passages of the source.
Tests used:
[1] = test system: Curtobacterium, flaccumfaciens; experiment: PI staining, broad spectrum activity; type: cell-based; conditions: 50 μg/ml
Clavibacter michigense [2] = experiment: PI staining, broad spectrum activity; type: cell-based; conditions: 50 μg/ml
[3] = test system: Pseudomonas syringae pv tomato DC3000; experiment: CFU determination, broad spectrum activity; type: cell-based; conditions: 50 μg/ml, Pseudomonas syringae pv tomato DC3000, untreated 10^7
Bacillus subtilis [4] = experiment: CFU determination, broad spectrum activity; type: cell-based; conditions: 50 μg/ml, untreated 10^6
[5] = test system: Sinorhizobium meliloti AK631; experiment: PI staining of Sinorhizobium meliloti; conditions: 50 μg/ml, Sinorhizobium meliloti (AK631)
Xanthomonas 2880 [6] = experiment: PI staining, broad spectrum activity; type: cell-based; conditions: 50 μg/ml
[7] = test system: Curtobacterium, flaccumfaciens; experiment: CFU determination, broad spectrum activity; type: cell-based; conditions: 50 μg/ml, untreated 10^9
Staphylococcus aureus [8] = experiment: PI staining, broad spectrum activity; type: cell-based; conditions: 50 μg/ml
[9] = test system: Sinorhizobium meliloti AK631; experiment: CFU determination of Sinorhizobium meliloti; conditions: for CFU % / CFU (colony/ml): 1 hr; for CFU determination (colony formation): 3 hours, 2-3×10^6 bacteria, FIG. 2B; for CFU: Sinorhizobium meliloti (AK631), untreated 10^7; for eradication of the bacteria: from the low dose of 20 μg/ml
Staphylococcus aureus [10] = experiment: CFU determination, broad spectrum activity; type: cell-based; conditions: 50 μg/ml, untreated 10^6
[11] = test system: Pseudomonas syringae pv tomato DC3000; experiment: PI staining, broad spectrum activity; type: cell-based; conditions: 50 μg/ml
Pseudomonas aeruginosa [12] = experiment: PI staining, broad spectrum activity; type: cell-based; conditions: 50 μg/ml
Candida albicans = experiment: Antifungal activity in 96-well microtiter plates; type: cell-based; design: key: +++: high sensitivity, no hyphal growth; ++: medium sensitivity; +: low sensitivity; −: no effect; conditions: 24 h
Xanthomonas 2880 [13] = experiment: CFU determination, broad spectrum activity; type: cell-based; conditions: 50 μg/ml, Xanthomonas 2880, untreated 10^7
Aspergillus niger = experiment: Antifungal activity in 96-well microtiter plates; type: cell-based; design: key: +++: high sensitivity, no hyphal growth; ++: medium sensitivity; +: low sensitivity; −: no effect; conditions: 24 h
Fusarium graminearum [14] = type: cell-based; design: key: +++: high sensitivity, no hyphal growth; ++: medium sensitivity; +: low sensitivity; −: no effect; conditions: 24 h
Candida parapsilosis = experiment: Antifungal activity in 96-well microtiter plates; type: cell-based; design: key: +++: high sensitivity, no hyphal growth; ++: medium sensitivity; +: low sensitivity; −: no effect; conditions: 24 h
Bacillus subtilis [15] = experiment: PI staining, broad spectrum activity; type: cell-based; conditions: 50 μg/ml
Clavibacter michigense [16] = experiment: CFU determination, broad spectrum activity; type: cell-based; conditions: 50 μg/ml, untreated 10^9
Candida crusei = experiment: Antifungal activity in 96-well microtiter plates; type: cell-based; design: key: +++: high sensitivity, no hyphal growth; ++: medium sensitivity; +: low sensitivity; −: no effect; conditions: 24 h
[17] = test system: Rhizopus stolonifer var. stolonifer; experiment: Antifungal activity in 96-well microtiter plates; type: cell-based; design: key: +++: high sensitivity, no hyphal growth; ++: medium sensitivity; +: low sensitivity; −: no effect; conditions: 24 h
Aspergillus flavus = experiment: Antifungal activity in 96-well microtiter plates; type: cell-based; design: key: +++: high sensitivity, no hyphal growth; ++: medium sensitivity; +: low sensitivity; −: no effect; conditions: 24 h
Pseudomonas aeruginosa [18] = experiment: CFU determination, broad spectrum activity; type: cell-based; conditions: 50 μg/ml, strain resistant to conventional antibiotics
Fusarium graminearum [19] = type: cell-based; conditions: 50 μg/ml, same at 24 h and 48 h, FIGS. 11C and 11F

NCR057: cationic NCR peptide (RPVSCKDHYDCRRKVKIVGCIFPQEKPMCINSMCTCIREIVP; Peptide derived from Medicago truncatula)
PI [1]: PI: 60%
PI (Clavibacter michigense [2]): PI: 70%
CFU [3]: CFU: 10^6
CFU (Bacillus subtilis [4]): CFU: 10^6
PI [5]: PI: 35%
PI (Xanthomonas 2880 [6]): PI: 65%
CFU [7]: CFU: 0
PI (Staphylococcus aureus [8]): PI: 47%
CFU % ([9]; 20 μg/ml): 148%
CFU (colony/ml) ([9]; 20 μg/ml): 9800000 colony/ml
CFU % ([9]; 50 μg/ml): 68%
CFU (colony/ml) ([9]; 50 μg/ml): 4500000 colony/ml
CFU determination (colony formation) ([9]; 50 μg/ml): reduced growth capacity
CFU ([9]; 50 μg/ml): CFU: 10^6
eradication of the bacteria [9]: able to eradicate the bacteria in less than an hour
CFU (Staphylococcus aureus [10]): CFU: 10^6
PI [11]: PI: 50%

NCR224: anionic NCR peptide (KDLPFNICEKDEDCLEFCAHDKVAKCMLNICFCF; Peptide derived from Medicago truncatula)
CFU % ([9]; 20 μg/ml): 130%
CFU (colony/ml) ([9]; 20 μg/ml): 52900000 colony/ml
CFU % ([9]; 50 μg/ml): 48%
CFU (colony/ml) ([9]; 50 μg/ml): 19600000 colony/ml
CFU determination (colony formation) ([9]; 50 μg/ml): reduced growth capacity

NCR247: cationic NCR peptide (RNGCIVDPRCPYQQCRRPLYCRRR; Peptide derived from Medicago truncatula)
PI [1]: PI: 27%
PI (Clavibacter michigense [2]): PI: 50%
CFU [3]: CFU: 0
PI (Pseudomonas aeruginosa [12]): PI: 15%
CFU (Bacillus subtilis [4]): CFU: 10^6
Fungal (hyphal) growth, sensitivity (Candida albicans; 25 μg/ml): +++
Fungal (hyphal) growth, sensitivity (Candida albicans; 50 μg/ml): +++
Fungal (hyphal) growth, sensitivity (Candida albicans; 100 μg/ml): +++
CFU (Xanthomonas 2880 [13]): CFU: 0
Fungal (hyphal) growth, sensitivity (Aspergillus niger; 25 μg/ml): +++
Fungal (hyphal) growth, sensitivity (Aspergillus niger; 50 μg/ml): +++
Fungal (hyphal) growth, sensitivity (Aspergillus niger; 100 μg/ml): +++
PI [5]: PI: 70%
PI (Xanthomonas 2880 [6]): PI: 48%
Fungal (hyphal) growth, sensitivity (Fusarium graminearum [14]; 25 μg/ml): ++
Fungal (hyphal) growth, sensitivity (Fusarium graminearum [14]; 50 μg/ml): ++
Fungal (hyphal) growth, sensitivity (Fusarium graminearum [14]; 100 μg/ml): ++
Fungal (hyphal) growth, sensitivity (Candida parapsilosis; 25 μg/ml): +++
Fungal (hyphal) growth, sensitivity (Candida parapsilosis; 50 μg/ml): +++
Fungal (hyphal) growth, sensitivity (Candida parapsilosis; 100 μg/ml): +++
CFU [7]: CFU: 0
PI (Bacillus subtilis [15]): PI: 18%
CFU (Clavibacter michigense [16]): CFU: 0
Fungal (hyphal) growth, sensitivity (Candida crusei; 25 μg/ml): +++
Fungal (hyphal) growth, sensitivity (Candida crusei; 50 μg/ml): +++
Fungal (hyphal) growth, sensitivity (Candida crusei; 100 μg/ml): +++
Fungal (hyphal) growth, sensitivity ([17]; 25 μg/ml): +++
Fungal (hyphal) growth, sensitivity ([17]; 50 μg/ml): +++
Fungal (hyphal) growth, sensitivity ([17]; 100 μg/ml): +++
Fungal (hyphal) growth, sensitivity (Aspergillus flavus; 25 μg/ml): +++
Fungal (hyphal) growth, sensitivity (Aspergillus flavus; 50 μg/ml): +++
Fungal (hyphal) growth, sensitivity (Aspergillus flavus; 100 μg/ml): +++
CFU (FIG. 10) (Pseudomonas aeruginosa [18]): completely eradicated
PI (Staphylococcus aureus [8]): PI: 30%
CFU % ([9]; 20 μg/ml): 0%
CFU (colony/ml) ([9]; 20 μg/ml): 0 colony/ml
CFU % ([9]; 50 μg/ml): 0%
CFU (colony/ml) ([9]; 50 μg/ml): 0 colony/ml
CFU determination (colony formation) ([9]; 50 μg/ml): none formed colony
CFU ([9]; 50 μg/ml): CFU: 0
eradication of the bacteria [9]: able to eradicate the bacteria in less than an hour
CFU (Staphylococcus aureus [10]): CFU: 10^5
spores and hyphae development (Fusarium graminearum [19]): inhibits the spores and hyphae development
PI [11]: PI: 60%

From patent publication US8592367B2, “Nodule specific medicago peptides having antimicrobial activity and pharmaceutical compositions containing the same” (priority 2009, dated 2013)
